We go through 18 molecules from US9139585B2 (Merck Sharp & Dohme Corp., priority 2011, dated 2015).

Read-outs that look alike come from different tables or passages of the source.

Assay [1] addresses hROMK (hKir1.1) (Homo sapiens (Human), UniProt P48048). The assay is described as follows: Thallium Flux Assay (ROMK channel functional thallium flux, FLIPR-Tetra). It counts as cell-based. Here is the method: Another ROMK functional assay makes use of the ability of thallium to permeate through open ROMK channels and increase the fluorescence of a dye previously loaded into the cells. Under control conditions, cells loaded with dye and exposed to thallium-containing medium display a time-dependent increase in fluorescence, the rate of which depends on number of functional channels. When cells are incubated in the presence of a channel inhibitor, the increase in fluorescence is attenuated in a concentration-dependent manner, and IC50 values of inhibition by compounds can be accurately determined. This assay has been established with cell lines expressing either human, or rat ROMK channels, and operates in 384-well format.
HEK293 cells stably expressing hROMK (hKir1.1) were grown at 37° C. in a 10% CO2 humidified incubator in complete growth media: Dulbecco's Modified Eagle Medium supplemented with non-essential amino acids, Penicillin/Streptomycin/Glutamine, G418 and FBS. At >80% confluency, the media was aspirated from the flask and the sample was rinsed with 10 ml Calcium/Magnesium-free PBS. […] To dislodge the cell, the side of the flask was gently banged with a hand. The cells were triturated completely and then transferred to 25 ml complete media. The sample was then centrifuged at 1,500 rpm for 6 minutes, followed by resuspension in complete growth media and then cell concentration was determined. […] Under ideal growth conditions and appropriate tissue culture practices, this cell line is stable for 40-45 passages.
FluxOR Kit Components (Invitrogen F10017)
• FluxOR™ Reagent (Component A) • FluxOR™ Assay Buffer (Component B)—10× Concentrate • PowerLoad™ Concentrate (Component C)—100× Concentrate • Probenecid (Component D)—Lyophilized sample is kept at −20° C. Water soluble, 100× after solubilization in 1 ml water. […] Store at 4° C. • Thallium sulfate (Tl2SO4) Concentrate (Component G)—50 mM in water. Store at 4° C. • DMSO (dimethyl sulfoxide, Component H)—1 ml (100%) Reagent Preparation— FluxOR Working Solutions • 1000× FluxOR™ Reagent: Reconstitute a vial of component A in 100 μl DMSO; Mix well; Store 10 μl aliquots at −20° C. • 1× FluxOR™ Assay Buffer: Dilute Component B 10-fold with water; Adjust pH to 7.4 with Hepes/NaOH; Filter and store at 4° C. • Probenecid/Assay Buffer: 100 ml of 1× FluxOR™ Assay Buffer; 1 ml of reconstituted component D; Store at 4° C. • Loading Buffer (per microplate): 10 μl 1000× FluxOR™ Reagent; 100 μl component C; 10 ml Probenecid/Assay Buffer • Compound Buffer (per microplate): 20 ml Probenecid/Assay Buffer; 0.3 mM ouabain (10 mM ouabain in water can be stored in amber bottle/aluminum foil at room temperature);
Test compound • 1× FluxOR™ Chloride-Free Buffer: Prepare 1× working solution in water. Can be stored at room temperature • Stimulant Buffer (prepared at 5× final concentration in 1× FluxOR™ Chloride-Free Buffer): 7.5 mM Thallium sulfate and 0.75 mM Potassium sulfate (to give a final assay concentration of 3 mM Thallium/0.3 mM Potassium). Store at 4° C. when not in use. If kept sterile, this solution is good for months. Assay Protocol—
The ROMK channel functional thallium flux assay is performed in 384 wells, using the FLIPR-Tetra instrument. HEK-hKir1.1 cells are seeded in Poly-D-Lysine microplates and kept in a 37° C.-10% CO2 incubator overnight. On the day of the experiment, the growth media is replaced with the FluxOR™ reagent loading buffer and incubated, protected from light, at ambient temperature (23-25° C.) for 90 min. The loading buffer is replaced with assay buffer±test compound followed by 30 min incubation at ambient temperature, where the Thallium/Potassium stimulant is added to the microplate.
• 1. Seed HEK-hKir1.1 cells (50 μl at 20,000 cells/well) in 384-well PDL coated Microplates • 2. Allow cells to adhere overnight in humidified 37° C./10% CO2 incubator • 3. Completely remove cell growth media from microplate and replace with 25 μl loading buffer • 4.

Assay [2] addresses Kir1.1 (ROMK1) (Homo sapiens (Human), UniProt P48048). The assay is described as follows: Electrophysiology Assay (whole cell voltage clamp, IonWorks Quattro). Format: cell-based. The text has this: Several assays may be used to measure functional inhibition of the ROMK channel by compounds of the instant invention. One assay that can be used is an electrophysiology assay that measures the electrical current that is generated as potassium permeates through the channel.
Block of Kir1.1 (ROMK1) currents was examined by whole cell voltage clamp (Hamill et. al. Pfluegers Archives 391:85-100 (1981)) using the IonWorks® Quattro automated electrophysiology platform (Molecular Devices, Sunnyvale, Calif.). Chinese hamster ovary cells stably expressing Kir1.1 channels were maintained in T-75 flasks in cell culture media in a humidified 10% CO2 incubator at 37° C. Prior to an experiment, Kir1.1 expression was induced by overnight incubation with 1 mM sodium butyrate. On the day of the experiment, cells were dissociated with 2.5 ml of Versene™ (Invitrogen 15040-066) for approximately 6 minutes at 37° C. and suspended in 10 ml of bath solution containing (in mM): 150 NaCl, 10 KCl, 2.7 CaCl2, 0.5 MgCl2, 5 HEPES, pH 7.4. After centrifugation, the cell pellet was resuspended in approximately 4.0 ml of bath solution and placed in the IonWorks® instrument. The intracellular solution consisted of (in mM): 80 K gluconate, 40 KCl, 20 KF, 3.2 MgCl2, 3 EGTA, 5 Hepes, pH 7.4. Electrical access to the cytoplasm was achieved by perforation in 0.13 mg/ml amphotericin B for 4 minutes. Amphotericin B (Sigma A-4888) was prepared as a 40 mg/ml solution in DMSO.
Voltage protocols and current recordings were performed using the IonWorks® HT software/hardware system. Currents were sampled at 1 kHz. No correction for liquid junction potentials was used. The test pulse, consisting of a 100 ms step to 0 mV from a holding potential of −70 mV, followed by a 100 ms voltage ramp from −70 mV to +70 mV, was applied before and after a 6 minutes compound incubation period. Test compounds were prepared by diluting DMSO stock solutions into the bath solution at 3× the final concentration and placed in the instrument in 96-well polypropylene plates. Current amplitudes were measured using the IonWorks® software. To assess compound potency, the fractional block during the voltage step to 0 mV was calculated in Microsoft® Excel (Microsoft, Redmond, Calif.), and dose-response curves were fitted with Igor Pro 4.0 (WaveMetrics, Lake Oswego, Oreg.).
(The patch-clamp technique gives a direct electrical read-out from membranes.)

The mark [3] stands for this setting: HEK293 cells stably expressing hROMK (hKir1.1), read-out: Thallium Flux Assay IC50.
Setting [4] is: Chinese hamster ovary cells stably expressing Kir1.1, block during voltage step to 0 mV, read-out: EP Assay IC50.

Kir1.1 (ROMK1), sequence (P48048 whole entry, species assumed): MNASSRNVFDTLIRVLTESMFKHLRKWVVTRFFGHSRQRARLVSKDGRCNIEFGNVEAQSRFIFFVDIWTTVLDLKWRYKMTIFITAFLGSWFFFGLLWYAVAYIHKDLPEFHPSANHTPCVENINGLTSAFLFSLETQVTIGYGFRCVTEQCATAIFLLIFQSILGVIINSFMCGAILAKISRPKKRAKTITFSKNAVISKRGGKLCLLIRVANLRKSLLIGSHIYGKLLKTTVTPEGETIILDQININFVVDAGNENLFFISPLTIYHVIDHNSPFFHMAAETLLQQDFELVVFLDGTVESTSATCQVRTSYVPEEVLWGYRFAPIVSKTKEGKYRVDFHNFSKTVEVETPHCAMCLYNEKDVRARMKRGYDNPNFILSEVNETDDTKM
hROMK (hKir1.1), sequence (P48048 whole entry): as the sequence (P48048 whole entry, species assumed) above

Take `Cc1c([C@@H](O)CN2CC3COCC(C2)N3CC(O)c2ccc(C#N)cn2)ccc2c1COC2=O` (stereo partly drawn) [Example 20, 6-(1-Hydroxy-2-(7-((R)-2-hydroxy-2-(4-methyl-1-oxo-1,3-dihydroisobenzofuran-5-yl)ethyl)-3-oxa-7,9 diazabicyclo[3.3.1]nonan-9-yl)ethyl)nicotinonitrile]: the IC50 (in general, the concentration needed to halve the response being measured) in assay [1] (setting [3]) was determined as 78 nM; in assay [2] (setting [4]) it was 29.5 nM.
On the same counts, the results for `Cc1nc(C(O)CN2C3CCC2C2CCC3N2C[C@H](O)c2ccc3c(c2C)COC3=O)ccc1C#N` (stereo partly drawn) [Example 7, 6-(1-Hydroxy-2-{10-[(2R)-2-hydroxy-2-(4-methyl-1-oxo-1,3-dihydro-2-benzofuran-5-yl)ethyl]-9,10-diazatricyclo[4.2.1.1^2,5]dec-9-yl}ethyl)-2-methylpyridine-3-carbonitrile] are 115 nM and 45 nM.
The like results for `Cc1c([C@@H](O)CN2CCN(C[C@H](O)c3ccc4c(c3)C[C@H](C)OC4=O)CC2)ccc2c1COC2=O` (single isomer, unassigned) [Example 37B] were, in that order, 48.5 nM and 31.5 nM.
The like results for `Cc1c([C@@H](O)CN2CCN(CCc3ccc4c(c3)CCOC4=O)CC2)ccc2c1COC2=O` [Example 30, (R)-6-(2-(4-(2-Hydroxy-2-(4-methyl-1-oxo-1,3-dihydroisobenzofuran-5-yl)ethyl)piperazin-1-yl)ethyl)isochroman-1-one] were, in that order, 56 nM and 21 nM.
Turning to `Cc1c([C@@H](O)CN2C3COCC2CN(CC(O)c2ccc4c(c2)C[C@@H](C)OC4=O)C3)ccc2c1COC2=O` (single isomer, unassigned) [Example 24B], the IC50 in assay [1] (Thallium Flux Assay IC50) stood at 36.1 nM; in assay [2], 66 nM.
For `COc1cc(C(O)CN2C3CCC2C2CCC3N2C[C@H](O)c2ccc3c(c2C)COC3=O)ncc1C#N` (single isomer, unassigned) [Example 6], the IC50 was found to be 26 nM in assay [1] (setting [3]) and 21 nM in assay [2] (setting [4]).
On to `COc1cc(C(O)CN2C3COCC2CN(C[C@H](O)c2ccc4c(c2C)COC4=O)C3)ncc1C#N` (stereo in doubt) [Example 25, (R)-6-(1-Hydroxy-2-(7-(2-hydroxy-2-(4-methyl-1-oxo-1,3-dihydroisobenzofuran-5-yl)ethyl)-3-oxa-7,9 diazabicyclo[3.3.1]nonan-9-yl)ethyl)-4-methoxynicotinonitrile], for which the IC50 is 20.5 nM in assay [1] (setting [3]) and 110 nM in assay [2] (read-out: EP Assay IC50).
Consider `COc1cc(C(O)CN2C3CCC2C2CCC3N2C[C@H](O)c2ccc3c(c2C)COC3=O)ncc1C#N` (single isomer, unassigned) [Example 9], for which the IC50 in assay [1] (setting [3]) and in assay [2] (setting [4]) was 23 nM throughout.
For `Cc1c([C@@H](O)CN2CCN(C[C@H](O)c3ccc4c(c3)C[C@H](C)OC4=O)CC2)ccc2c1COC2=O` (single isomer, unassigned) [Example 37A], the IC50 in assay [1] (setting [3]) worked out at 685 nM; in assay [2] (setting [4]), 71 nM.
On the same counts, the results for `Cc1c([C@@H](O)CN2CCN(C[C@H](O)c3ccc4c(c3)C[C@@H](C)OC4=O)CC2)ccc2c1COC2=O` (single isomer, unassigned) [Example 38B] are 33.4 nM and 29 nM.
The like results for `O=C1OCCc2cc(CCN3CCN(CC(O)c4ccc5c(c4C(F)(F)F)COC5=O)CC3)ccc21` (stereo not drawn) [Example 33, 6-(2-(4-(2-Hydroxy-2-(1-oxo-4-(trifluoromethyl)-1,3-dihydroisobenzofuran-5-yl)ethyl)piperazin-1-yl)ethyl)isochroman-1-one] were, in that order, 293 nM and 38 nM.
Take `Cc1c([C@@H](O)CN2C3COCC2CN(CC(O)c2ccc4c(c2)C[C@H](C)OC4=O)C3)ccc2c1COC2=O` (single isomer, unassigned) [Example 23B]: the IC50 in assay [1] (Thallium Flux Assay IC50) was 40.5 nM; in assay [2] it was 64 nM.
Consider `Cc1c([C@@H](O)CN2[C@@H]3CC[C@H]2CN(C(=O)c2ccc(-n4cnnn4)nc2)C3)ccc2c1COC2=O` [Example 12, 5-((R)-2-((1R,5S)-3-(6-(1H-Tetrazol-1-yl)nicotinoyl)-3,8-diazabicyclo[3.2.1]octan-8-yl)-1-hydroxyethyl)-4-methylisobenzofuran-1 (3H)-one], for which the IC50 stood at 342 nM in assay [1] (setting [3]) and 140 nM in assay [2] (setting [4]).
The like results for `Cc1nc(-n2cnnn2)ccc1[C@@H](O)CN1CCN(C[C@H](O)c2ccc3c(c2C)COC3=O)CC1` (single isomer, unassigned) [Example 36A] were, in that order, 441 nM and 55 nM.
Take `Cc1c([C@@H](O)CN2CC3CCC2CN3S(=O)(=O)c2ccc(-n3cnnn3)cc2)ccc2c1COC2=O` (single isomer, unassigned) [Example 17A]: the IC50 turned out to be 508 nM in assay [1] (setting [3]) and 170 nM in assay [2] (setting [4]).
As to `COc1cc(C(O)CN2C3COCC2CN(C[C@H](O)c2ccc4c(c2C)COC4=O)C3)ncc1C#N` (stereo in doubt) [Example 26, (R)-6-(1-Hydroxy-2-(7-(2-hydroxy-2-(4-methyl-1-oxo-1,3-dihydroisobenzofuran-5-yl)ethyl)-3-oxa-7,9 diazabicyclo[3.3.1]nonan-9-yl)ethyl)-4-methoxynicotinonitrile], the IC50 was 49.2 nM in assay [1] (setting [3]) and 71 nM in assay [2] (read-out: EP Assay IC50).
As for `Cc1c([C@@H](O)CN2C3COCC2CN(CC(O)c2ccc4c(c2)C[C@H](C)OC4=O)C3)ccc2c1COC2=O` (single isomer, unassigned) [Example 23A], the IC50 in assay [1] (Thallium Flux Assay IC50) stood at 461 nM; in assay [2] (setting [4]), 2460 nM.
Take `Cc1cc(-n2cnnn2)ncc1[C@@H](O)CN1CCN(C[C@H](O)c2ccc3c(c2C)COC3=O)CC1` (single isomer, unassigned) [Example 35B]: the values for the IC50 in assay [1] (setting [3]) and in assay [2] (setting [4]) were 278 nM and 32.5 nM, respectively.
